Experimental findings from ChEMBL document CHEMBL4145459, “Synthesis of (3S,4S,5S)-trihydroxylpiperidine derivatives as enzyme stabilizers to improve therapeutic enzyme activity in Fabry patient cell lines” (Eur J Med Chem, 2018) are described below.

In assay [1] the target is T1, Alpha-galactosidase A (Homo sapiens) (UniProt P06280).
T1 sequence (whole entry): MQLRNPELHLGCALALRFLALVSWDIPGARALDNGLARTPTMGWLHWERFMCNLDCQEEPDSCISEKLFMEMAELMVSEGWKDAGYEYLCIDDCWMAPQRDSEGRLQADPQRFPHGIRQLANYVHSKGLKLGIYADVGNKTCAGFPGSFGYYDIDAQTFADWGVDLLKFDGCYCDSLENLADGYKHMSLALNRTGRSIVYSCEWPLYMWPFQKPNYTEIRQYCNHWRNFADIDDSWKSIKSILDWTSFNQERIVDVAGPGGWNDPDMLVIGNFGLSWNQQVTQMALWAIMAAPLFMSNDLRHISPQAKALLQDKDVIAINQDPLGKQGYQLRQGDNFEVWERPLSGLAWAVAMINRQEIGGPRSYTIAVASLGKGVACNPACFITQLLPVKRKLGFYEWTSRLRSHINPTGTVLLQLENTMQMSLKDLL
Briefly: Stabilization of human recombinant alpha-galactosidase A using 4-MU-alpha-d-galactopyranoside as substrate assessed as inhibition of thermal-induced denaturation preincubated for 10 to 30 mins followed by substrate addition and measured after 15 mins by fluorescence assay.

The target of assay [2] is T2, Beta-galactosidase (Homo sapiens) (UniProt P16278).
T2 sequence (whole entry): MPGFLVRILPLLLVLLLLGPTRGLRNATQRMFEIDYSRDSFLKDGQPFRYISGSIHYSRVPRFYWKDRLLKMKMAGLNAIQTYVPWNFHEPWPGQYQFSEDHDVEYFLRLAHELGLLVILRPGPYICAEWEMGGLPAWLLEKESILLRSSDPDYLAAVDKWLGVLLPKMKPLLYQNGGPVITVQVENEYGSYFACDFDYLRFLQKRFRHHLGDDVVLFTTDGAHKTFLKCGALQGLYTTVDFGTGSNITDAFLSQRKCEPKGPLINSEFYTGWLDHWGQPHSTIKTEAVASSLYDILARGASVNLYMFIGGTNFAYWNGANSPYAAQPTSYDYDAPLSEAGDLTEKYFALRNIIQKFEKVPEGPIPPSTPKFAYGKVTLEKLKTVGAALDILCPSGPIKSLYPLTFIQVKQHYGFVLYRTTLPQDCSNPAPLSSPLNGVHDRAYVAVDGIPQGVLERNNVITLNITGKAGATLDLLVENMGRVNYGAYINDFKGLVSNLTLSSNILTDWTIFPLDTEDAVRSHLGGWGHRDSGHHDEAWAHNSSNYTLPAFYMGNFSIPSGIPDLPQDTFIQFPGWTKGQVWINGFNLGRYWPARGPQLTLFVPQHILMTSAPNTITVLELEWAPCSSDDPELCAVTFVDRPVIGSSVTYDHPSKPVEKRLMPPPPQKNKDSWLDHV
Briefly: Inhibition of human beta-galactosidase at 100 uM using 4-MU-beta-d-galactoside as substrate by fluorescence assay.

A further assay concerns the target T3, Alpha-galactosidase A (Homo sapiens, UniProt P06280).
T3 sequence (P06280 whole entry): T1 sequence (whole entry)
Briefly: Competitive inhibition of human recombinant alpha-galactosidase A using 4-MU-alpha-d-galactopyranoside as substrate by Lineweaver-Burk plot method.

Activity calls are given as the source filed them. The rule behind the calls is not given here.

Regarding `NC[C@H]1NC[C@H](O)[C@@H](O)[C@H]1O`, in assay [1], the Activity entry is “Dose-dependent effect”.

In the case of `NC[C@@H]1NC[C@H](O)[C@@H](O)[C@H]1O`, the inhibition entry in assay [2] was “inactive”. In the case of `NC[C@H]1NC[C@H](O)[C@H](O)[C@H]1O`, the inhibition entry in assay [2] was “inactive”. Turning to `O=C(/C=C/c1cccc(Br)c1)NC[C@H]1NC[C@H](O)[C@@H](O)[C@H]1O`, the Ki on Alpha-galactosidase A amounted to 3.5 µM. Turning to `NC[C@@H]1NC[C@H](O)[C@H](O)[C@H]1O`, the inhibition result in assay [2] is “inactive”.

One may read the Ki as the dissociation constant of the complex between target and ligand, obtained from inhibition or displacement.
